Assay results: patent US6479550B1, “α-sulfenimino acid derivatives” (priority 1999, dated 2002)

Experiments:
Plasmopara viticola = test: D-1: Action against Plasmopara viticola on vines (residual-protective and residual-curative action); format: in vivo; conditions: vine seedlings, spray mixture 0.02% active ingredient; evaluated after 6 days at 95-100% relative humidity and 20° C.
Method: D-1: Action against Plasmopara viticola on Vines a) Residual-protective Action
Vine seedlings are sprayed at the 4- to 5-leaf stage with a spray mixture (0.02% active ingredient) prepared from a wettable powder formulation of the test compound. After 24 hours, the treated plants are infected with a sporangia suspension of the fungus. Fungus infestation is evaluated after incubation for 6 days at 95-100% relative humidity and 20° C. […]
b) Residual-curative Action
Vine seedlings are infected at the 4- to 5-leaf stage with a sporangia suspension of the fungus. After incubation for 24 hours in a humidity chamber at 95-100% relative humidity and 20° C., the infected plants are dried and sprayed with a spray mixture (0.02% active ingredient) prepared from a wettable powder formulation of the test compound. After the spray coating has dried, the treated plants are placed in the humidity chamber again. Fungus infestation is evaluated 6 days after infection.

Phytophthora [1] = test: D-2: Action against Phytophthora on tomato plants (residual-protective and systemic action); format: in vivo; conditions: spray mixture 0.02% active ingredient, sprayed or watered, evaluated 4-5 days after infection at 90-100% relative humidity and 20° C.
Method: D-2: Action Against Phytophthora on Tomato Plants
(§1) a) Residual-protective Action
(§2) After a cultivation period of 3 weeks, tomato plants are sprayed with a spray mixture (0.02% active ingredient) prepared from a wettable powder formulation of the test compound. After 48 hours, the treated plants are infected with a sporangia suspension of the fungus. Fungus infestation is evaluated after incubation of the infected plants for 5 days at 90-100% relative humidity and 20° C.
as §2, with “watered” for “sprayed”, “ingredient based on the volume of the soil)” for “ingredient)”, “compound. […]” for “compound.”, “96” for “48”, “4” for “5”

Phytophthora [2] = test: D-3: Action against Phytophthora on potato plants (residual-protective and systemic action); format: in vivo; conditions: potato plants (Bintje variety), spray mixture 0.02% active ingredient, sprayed or watered; evaluated after 4 days at 90-100% relative humidity and 20° C.
Method: D-3: Action Against Phytophthora on Potato Plants
as §1
(§3) 2-3 week old potato plants (Bintje variety) are sprayed with a spray mixture (0.02% active ingredient) prepared from a wettable powder formulation of the test compound. After 48 hours, the treated plants are infected with a sporangia suspension of the fungus. Fungus infestation is evaluated after incubation of the infected plants for 4 days at 90-100% relative humidity and 20° C.
as §3, with “watered” for “sprayed”, “ingredient based on the volume of the soil)” for “ingredient)”, “compound. […]” for “compound.”

| Structure (SMILES) | Fungus infestation (fungicidal action against Plasmopara viticola on vines) (Plasmopara viticola) | Fungus infestation (action against Phytophthora on tomato plants) (Phytophthora [1]) | melting point | Fungus infestation (fungicidal action against Phytophthora on potatoes) (Phytophthora [2]) |
| --- | --- | --- | --- | --- |
| C#CCOc1ccc(CCNC(=O)C(=NSC)c2ccc3ccccc3c2)cc1OC [Compound 14.121, N-[2-(3-methoxy-4-prop-ynyloxy-phenyl)-ethyl]-2-naphthalen-2-yl-2-methylthioimino-2-acetamide] | completely inhibit fungal infestation | – | – | – |
| C#CCOc1ccc(CCNC(=O)C(=NSC)c2ccc(Br)cc2)cc1OC [Compound 14.031, 2-(4-bromo-phenyl)-N-[2-(3-methoxy-4-prop-2-ynyloxy-phenyl)-ethyl]-2-methylthioimino-acetamide] | completely inhibit fungal infestation | completely inhibit fungal infestation | – | – |
| COc1ccc(CCNC(=O)C(=NSC)c2ccc(-c3ccc(C(C)(C)C)cc3)cc2)cc1OC [Compound 11.351, 2-[4-(4-tert.-butyl-phenyl)-phenyl]-N-[2-(3,4-di-methoxy-phenyl)-ethyl]-2-methylthioimino-acetamide] | completely inhibit fungal infestation | – | 45 to 52 °C | – |
| C#CCOc1ccc(CCNC(=O)C(=NSC)c2ccc(OC)cc2)cc1OC [Compound 14.051, 2-(4-methoxy-phenyl)-N-[2-(3-methoxy-4-prop-2-ynyloxy-phenyl)-ethyl]-2-methylthioimino-acetamide] | completely inhibit fungal infestation | – | – | – |
| CC#COc1ccc(CCNC(=O)C(=NSC)c2ccc(C)cc2)cc1OC [Compound 14.041, N-[2-(3-methoxy-4-prop-ynyloxy-phenyl)-ethyl]-2-methylthioimino-2-(4-tolyl)-acetamide] | completely inhibit fungal infestation | completely inhibit fungal infestation | – | completely inhibit fungal infestation |
| COc1ccc(CCNC(=O)C(=NSC)c2ccc(-c3ccc(C)cc3)cc2)cc1OC [Compound 11.171, 2-[4-(4-methyl-phenyl)-phenyl]-N-[2-(3,4-di-methoxy-phenyl)-ethyl]-2-methylthioimino-acetamide] | completely inhibit fungal infestation | – | 40 to 47 °C | – |
| C#CCOc1ccc(CCNC(=O)C(=NSC)c2ccc(Cl)cc2)cc1OC [Compound 14.001, 2-(4-chloro-phenyl)-N-[2-(3-methoxy-4-prop-2-ynyloxy-phenyl)-ethyl]-2-methylthioimino-acetamide] | completely inhibit fungal infestation | completely inhibit fungal infestation | – | completely inhibit fungal infestation |
| C#CCOc1ccc(CCNC(=O)C(=NSC)c2ccc(F)cc2)cc1OC [Compound 14.071, 2-(4-fluoro-phenyl)-N-[2-(3-methoxy-4-prop-2-ynyloxy-phenyl)-ethyl]-2-methylthioimino-acetamide] | completely inhibit fungal infestation | – | – | – |
| C#CCOc1ccc(CCNC(=O)C(=NSC)c2ccc(Cl)c(Cl)c2)cc1OC [Compound 14.011, 2-(3,4-dichloro-phenyl)-N-[2-(3-methoxy-4-prop-2-ynyloxy-phenyl)-ethyl]-2-methylthioimino-acetamide] | completely inhibit fungal infestation | completely inhibit fungal infestation | – | completely inhibit fungal infestation |
